One block for each compound: values may come before it.
Experiments:
[1] = system: model of systemic lupus erythematosis; details: in vivo; cited from earlier work
[2] = system: mouse model of rheumatoid arthritis; details: in vivo; cited from earlier work
PI3Kδ = target: T1, PI3Kδ (Homo sapiens, UniProt O00329); test: In vitro enzyme assay of recombinant PI3K (residual ATP bioluminescence); assay type: biochemical
T1 construct: Full length p110 subunits of PI3k α, β and δ, N-terminally labeled with polyHis tag; polyHis (N); made in house; host or cells: Sf9 insect cells (baculovirus)
T1 sequence (O00329 whole entry): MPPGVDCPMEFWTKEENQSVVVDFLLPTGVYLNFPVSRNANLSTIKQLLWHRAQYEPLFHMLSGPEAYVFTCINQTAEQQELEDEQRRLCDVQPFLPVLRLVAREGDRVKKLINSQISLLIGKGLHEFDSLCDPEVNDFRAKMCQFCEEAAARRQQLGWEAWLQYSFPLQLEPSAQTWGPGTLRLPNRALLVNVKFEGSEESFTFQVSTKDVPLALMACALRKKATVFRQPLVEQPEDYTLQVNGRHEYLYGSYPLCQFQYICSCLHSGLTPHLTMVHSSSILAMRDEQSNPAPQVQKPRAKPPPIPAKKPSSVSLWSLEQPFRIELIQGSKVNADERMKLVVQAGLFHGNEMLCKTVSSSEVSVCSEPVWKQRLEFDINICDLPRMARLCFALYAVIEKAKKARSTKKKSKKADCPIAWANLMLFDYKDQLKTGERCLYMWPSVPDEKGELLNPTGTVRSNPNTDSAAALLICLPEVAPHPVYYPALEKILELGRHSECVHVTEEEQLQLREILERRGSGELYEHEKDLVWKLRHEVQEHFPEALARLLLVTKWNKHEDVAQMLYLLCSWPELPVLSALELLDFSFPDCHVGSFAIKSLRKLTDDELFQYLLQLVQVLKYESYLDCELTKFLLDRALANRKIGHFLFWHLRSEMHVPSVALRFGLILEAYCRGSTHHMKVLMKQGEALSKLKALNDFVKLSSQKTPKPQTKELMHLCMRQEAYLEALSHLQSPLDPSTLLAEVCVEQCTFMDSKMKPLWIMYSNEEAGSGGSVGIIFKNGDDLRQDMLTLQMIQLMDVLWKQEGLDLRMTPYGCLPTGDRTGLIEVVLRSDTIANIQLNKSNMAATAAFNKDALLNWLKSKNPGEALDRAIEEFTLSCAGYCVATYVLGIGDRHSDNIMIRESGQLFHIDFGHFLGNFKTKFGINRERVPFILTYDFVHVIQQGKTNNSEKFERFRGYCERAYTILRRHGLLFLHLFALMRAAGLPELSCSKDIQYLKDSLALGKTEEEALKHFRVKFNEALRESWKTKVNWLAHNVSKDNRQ
T1 sequence (P27986 whole entry partner): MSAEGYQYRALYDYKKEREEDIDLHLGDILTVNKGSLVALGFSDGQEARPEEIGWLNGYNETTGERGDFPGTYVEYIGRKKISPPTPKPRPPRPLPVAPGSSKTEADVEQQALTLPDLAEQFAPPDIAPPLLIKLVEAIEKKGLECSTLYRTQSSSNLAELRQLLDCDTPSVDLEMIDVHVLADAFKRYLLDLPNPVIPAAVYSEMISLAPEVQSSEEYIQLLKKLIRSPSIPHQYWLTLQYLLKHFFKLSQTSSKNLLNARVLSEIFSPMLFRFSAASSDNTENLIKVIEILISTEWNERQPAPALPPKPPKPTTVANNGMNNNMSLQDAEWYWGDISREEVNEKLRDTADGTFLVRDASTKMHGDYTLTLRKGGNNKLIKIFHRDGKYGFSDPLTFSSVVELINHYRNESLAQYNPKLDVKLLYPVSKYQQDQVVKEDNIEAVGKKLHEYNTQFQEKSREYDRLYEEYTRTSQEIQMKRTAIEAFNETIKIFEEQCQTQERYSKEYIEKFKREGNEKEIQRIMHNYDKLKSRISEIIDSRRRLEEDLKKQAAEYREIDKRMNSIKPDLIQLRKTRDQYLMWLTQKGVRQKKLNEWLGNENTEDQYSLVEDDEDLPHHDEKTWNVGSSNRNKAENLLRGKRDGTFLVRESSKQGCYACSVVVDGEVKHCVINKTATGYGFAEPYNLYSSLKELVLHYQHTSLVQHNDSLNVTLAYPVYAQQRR
Procedure: Recombinant Expression of PI3Ks
Full length p110 subunits of PI3k α, β and δ, N-terminally labeled with polyHis tag, were coexpressed with p85 with Baculo virus expression vectors in sf9 insect cells. P110/p85 heterodimers were purified by sequential Ni-NTA, Q-HP, Superdex-100 chromatography. Purified α, β and δ isozymes were stored at −20° C. in 20 mM Tris, pH 8, 0.2M NaCl, 50% glycerol, 5 mM DTT, 2 mM Na cholate. Truncated PI3Kγ, residues 114-1102, N-terminally labeled with polyHis tag, was expessed with Baculo virus in Hi5 insect cells. The γ isozyme was purified by sequential Ni-NTA, Superdex-200, Q-HP chromatography. The γ isozyme was stored frozen at −80° C. in NaH2PO4, pH 8, 0.2M NaCl, 1% ethylene glycol, 2 mM β-mercaptoethanol.
Assays were performed in 25 μL with the above final concentrations of components in white polyproplyene plates (Costar 3355). Phospatidyl inositol phosphoacceptor, PtdIns(4,5)P2 P4508, was from Echelon Biosciences. The ATPase activity of the alpha and gamma isozymes was not greatly stimulated by PtdIns(4,5)P2 under these conditions and was therefore omitted from the assay of these isozymes. Test compounds were dissolved in dimethyl sulfoxide and diluted with three-fold serial dilutions. The compound in DMSO (1 μL) was added per test well, and the inhibition relative to reactions containing no compound, with and without enzyme was determined. After assay incubation at room temperature, the reaction was stopped and residual ATP determined by addition of an equal volume of a commercial ATP bioluminescence kit (Perkin Elmer EasyLite) according to the manufacturer's instructions, and detected using a AnalystGT luminometer.

murine model of asthma = details: ovalbumin-induced airway inflammation; cited from earlier work
p110δ = details: cited from earlier work
protein kinases = details: cited from earlier work
P110β = details: cited from earlier work

Compound: O=C1NC(=O)/C(=C\c2ccc3nccnc3c2)S1 [AS 605240]
onset of disease in a model of systemic lupus erythematosis [1]: delay onset of disease
efficacy in a mouse model of rheumatoid arthritis [2]: efficacious

IC50 (PI3Kδ): 16 nM
Compound: C[C@H](Nc1ncnc2[nH]cnc12)c1cc2cccc(Cl)c2nc1-c1cscn1 [Example 44, N-((S)-1-(8-Chloro-2-(thiazol-4-yl)quinolin-3-yl)ethyl)-9H-purin-6-amine]

IC50 (PI3Kδ): 8 nM
Compound: C[C@H](Nc1ncnc2[nH]cnc12)c1cc2ccc(F)cc2nc1-c1cccs1 [Example 46, N-((S)-1-(7-Fluoro-2-(thiophen-2-yl)quinolin-3-yl)ethyl)-9H-purin-6-amine]

Compound: Cc1ccccc1-n1c(Cn2cnc3c(N)ncnc32)nc2cccc(C)c2c1=O [IC87114]
inflammation and disease in a murine model of asthma (murine model of asthma): significantly ameliorate inflammation and disease
inhibits p110δ (p110δ): high nanomolar range (triple digit)
activity against any protein kinases tested (protein kinases): no activity

IC50 (PI3Kδ): 424 nM
Compound: C[C@@H](Nc1ncnc2[nH]cnc12)c1cc2cccc(Cl)c2nc1-c1cccc(F)c1 [N-((R)-1-(8-Chloro-2-(3-fluorophenyl)quinolin-3-yl)ethyl)-9H-purin-6-amine]

IC50 (PI3Kδ): 6 nM
Compound: C[C@H](Nc1ncnc2[nH]cnc12)c1cc2cccc(Cl)c2nc1-c1cccc(F)c1 [N-((S)-1-(8-Chloro-2-(3-fluorophenyl)quinolin-3-yl)ethyl)-9H-purin-6-amine]

Compound: Cc1cc(C(C)Nc2ccccc2)c2nc(N3CCOCC3)cc(=O)n2c1 (stereo not shown) [TGX-221]
selective over alpha (P110β; beta versus alpha): more than 500 fold
selective over delta (P110β; beta versus delta): 14 fold
selective over gamma (P110β; beta versus gamma): more than 500 fold
IC50 (P110β; read-out: potency on beta): 7 nM

— patent publication US8586739B2, “Heterocyclic compounds and their uses” (Amgen Inc., priority 2007, dated 2013)
